# Read-outs that look alike come from different tables or passages of the source.
# How the values were obtained:
# [1] = target: T1, recombinant T. brucei GlcNAc-PI de-N-acetylase (GST-TbGPI12) (Trypanosoma brucei, UniProt Q8I8A5); design: method as in PMID 22222041; settings: previously reported glucocyclitol-phospholipid substrate analogue; cited from earlier work
# [2] = target: T1, recombinant T. brucei GlcNAc-PI de-N-acetylase (GST-TbGPI12); assay: Mass spectrometry based activity assay, recombinant GST-TbGPI12; format: biochemical
# Procedure: Inhibition assays were performed in 100 μL final volume, with 1% v/v DMSO with or without inhibitor. […]. Enriched glycolipids were analysed by liquid chromatography coupled to an electrospray tandem mass spectrometer (LC–MS/MS). Samples (40 μL) were injected on to a 10 × 1 mm C18 column (ACE, 5 μM) and eluted using a binary gradient of 5–80% propan-1-ol in 5 mM NH4OAc (Dionex Ultimate 3000). The gradient consisted of 2 min 0% B, 2–4 min 0–100% B, 4–8 min 100%, 8–9 min 100–0% B, 9–10 min 0% B where buffer A consisted of 5% propan-1-ol, 5 mM NH4OAc and buffer B 80% propan-1-ol, 5 mM NH4OAc. The glycolipids were analysed on an electrospray triple quadrapole mass spectrometer (Micromass Quattro Ultima) in multiple reaction monitoring mode. The turnover of the substrate GlcNAc-IPC18 (m/z 715 > 223) to GlcN-IPC18 (m/z 672 > 223) was used to calculate the percentage of substrate conversion to product in a given sample.[6] Inhibitor IC50 values were calculated using a four-parameter fit of eight-point potency curves derived from three independent experiments, and are quoted with standard deviation. […]
# Figure 2 T. brucei GlcNAc-PI de-N-acetylase inhibitors. The activity of the recombinant enzyme against the synthetic substrate D-glucosamine-α-(1-6)-D-myo-inositol-1-octadecyl phosphate was measured using a mass spectrometry based assay (A) Fragments were screened at 1 mM in duplicate. […]
# [3] = target: T. brucei de-N-acetylase (cell-free system) (Trypanosoma brucei, UniProt Q8I8A5); assay: Mass spectrometry based activity assay, trypanosome cell-free system; format: biochemical; settings: for inhibition at 1000 µM: read-out: Inhibition at 1 mM (%); for ligand efficiency: from IC50 in cell-free system
# Procedure: Inhibition assays were performed in 100 μL final volume, with 1% v/v DMSO with or without inhibitor. […] Enriched glycolipids were analysed by liquid chromatography coupled to an electrospray tandem mass spectrometer (LC–MS/MS). Samples (40 μL) were injected on to a 10 × 1 mm C18 column (ACE, 5 μM) and eluted using a binary gradient of 5–80% propan-1-ol in 5 mM NH4OAc (Dionex Ultimate 3000). The gradient consisted of 2 min 0% B, 2–4 min 0–100% B, 4–8 min 100%, 8–9 min 100–0% B, 9–10 min 0% B where buffer A consisted of 5% propan-1-ol, 5 mM NH4OAc and buffer B 80% propan-1-ol, 5 mM NH4OAc. The glycolipids were analysed on an electrospray triple quadrapole mass spectrometer (Micromass Quattro Ultima) in multiple reaction monitoring mode. […] Inhibitor IC50 values were calculated using a four-parameter fit of eight-point potency curves derived from three independent experiments, and are quoted with standard deviation. […]
# [4] = test system: bloodstream form T. brucei; design: method as in PMID 986688, PMID 17126803; settings: cited from earlier work
# [5] = test system: T. brucei GPI pathway (cell-free system); assay: Trypanosome cell-free system assay, [3H]-mannose incorporation into GPI intermediates (HPTLC, fluorography); settings: GlcNAc-IPC18 10 μM; GDP-[3H]-mannose; tested at 0, 100, 300, 1000 μM
# Procedure: Trypanosome cell-free system assays, where the formation of GPI precursors is monitored by following the incorporation of [^3H]-mannose were analysed using high-performance liquid chromatography and fluorography as described previously.[13]
# Priming the cell-free system with GlcAc-IPC18 in the presence of GDP-[^3H]-mannose stimulates the production of radiolabelled mannosylated GPI intermediates that can be separated by high performance thin-layer chromatography and visualised by fluorography.
# (A) The T. brucei cell-free system was incubated with GlcNAc-PI (10 μM) in the presence of 0, 100, 300, or 1000 μM of 1 and 0.5 μCi of GDP-[^3H]-mannose to stimulate the production of radiolabelled mannosylated GPI intermediates. Glycolipid products were extracted, separated by high-performance thin-layer chromatography, and visualised by fluorography. DPM–dolichol-phosphate-mannose, M1–Man1GlcN-IPC18, M2–Man2GlcN-IPC18, M3–Man3GlcN-IPC18, A′–EtNPMan3GlcN-IPC18. (B) Inhibition of the turnover of GlcNAc-IPC18 (10 μM) by the presence of 1 measured in the T. brucei cell-free system in the LC–MS/MS assay.
# [6] = 1 mM, cell-free system, Table 1, commercially available analogues of 1
# [7] = 1 mM, fragment library screen, Table S1, footnote: cell-free system
# T1 sequence (Q8I8A5 entry or part of it): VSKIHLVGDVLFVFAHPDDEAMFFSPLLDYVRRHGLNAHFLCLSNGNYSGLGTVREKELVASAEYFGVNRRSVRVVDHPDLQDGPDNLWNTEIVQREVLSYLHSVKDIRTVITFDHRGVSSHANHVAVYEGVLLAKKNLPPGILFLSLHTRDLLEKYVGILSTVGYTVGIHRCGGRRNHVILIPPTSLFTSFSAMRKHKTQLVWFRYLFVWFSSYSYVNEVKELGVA
# Sequence of T. brucei de-N-acetylase (cell-free system) (Q8I8A5 entry or part of it): as above
SMILES,inhibition at 1000 µM [3] [%],melting point [°C],also measured
"CCCCCCCCCCCCCCCCCCOP(=O)(O)O[C@@H]1CCCC[C@H]1O[C@@H]1O[C@H](CO)[C@@H](O)[C@H](O)[C@H]1CC(=O)NO [1R,2R-1-O-[2-C-(carboxymethyl N-hydroxyamide)-2-deoxy-β-D-glucopyranosyl]-cyclohexanediol 2-(n-octadecylphosphate), reference compound]",–,–,IC50 [1]: 19 ± 0.5 µM; ligand efficiency ([2]; from the previously reported IC50 of ref 13): −0.13 kcal mol^−1 per non-hydrogen atom
"O=C(NO)c1ccccc1O [compound 1, salicylic hydroxamic acid]",97 ± 2,–,IC50 [2]: 63 ± 4 µM; toxicity in vivo to bloodstream form T. brucei [4]: toxic in vivo; concentration that prevented priming of the cell-free system with GlcNAc-IPC18 [5]: > 300 µM
O=C(O)c1ccccc1O [compound 2],25 ± 1,–,–
O=C(NO)c1ccccc1 [compound 3],–,–,"inhibition at 1000 µM [3, 6]: -6 ± 14%"
O=C(NO)c1ccccc1Br [compound 4],–,–,"inhibition at 1000 µM [3, 6]: -4 ± 15%"
Nc1ccccc1C(=O)NO [compound 5],–,–,"inhibition at 1000 µM [3, 6]: -5 ± 2%"
O=C(NO)c1ccc(Br)cc1O [compound 6],–,–,"inhibition at 1000 µM [3, 6]: 86 ± 2%"
O=C(NO)c1ccc(Br)cc1 [compound 7],–,–,"inhibition at 1000 µM [3, 6]: 9.6 ± 15%"
"O=C(NO)c1cc(NC(=O)C2CCCCC2)ccc1O [compound 20, 5-(Cyclohexanecarboxamido)-N,2-dihydroxybenzamide]",99 ± 1.6,229 to 230,ligand efficiency [3]: −0.30 kcal mol^−1 per non-hydrogen atom
"O=C(Nc1ccc(O)c(C(=O)NO)c1)c1ccccc1 [compound 21, 5-Benzamido-N,2-dihydroxybenzamide]",96 ± 0.4,211,ligand efficiency [3]: −0.29 kcal mol^−1 per non-hydrogen atom
"Cc1ccc(C(=O)Nc2ccc(O)c(C(=O)NO)c2)cc1 [compound 22, N,2-Dihydroxy-5-(4-methylbenzamido)benzamide]",62 ± 24,209,–
"CCCCCCCCCCCCCCCCCC(=O)Nc1ccc(O)c(C(=O)NO)c1 [compound 23, N,2-Dihydroxy-5-stearamidobenzamide]",25 ± 14,185 to 187,–
"CC(=O)N1CCC(C(=O)Nc2ccc(O)c(C(=O)NO)c2)CC1 [compound 24, 1-Acetyl-N-(4-hydroxy-3-(hydroxycarbamoyl)phenyl)piperidine-4-carboxamide]",40 ± 17,211 to 212,–
"O=C(Nc1ccc(O)c(C(=O)NO)c1)c1ccc(-c2ccccc2)cc1 [compound 25, N-(4-Hydroxy-3-(hydroxycarbamoyl)phenyl)-[1,1'-biphenyl]-4-carboxamide]",75 ± 7,216,–
"O=C(NO)c1cc(NC(=O)C2CCOCC2)ccc1O [compound 26, N-(4-Hydroxy-3-(hydroxycarbamoyl)phenyl)tetrahydro-2H-pyran-4-carboxamide]",56 ± 8.3,209,–
"O=C(Nc1ccc(O)c(C(=O)NO)c1)c1ccc2c(c1)OCO2 [compound 27, N-(4-Hydroxy-3-(hydroxycarbamoyl)phenyl)benzo[d][1,3]dioxole-5-carboxamide]",86 ± 11,209,–
COc1ccc(NC(=O)NO)cc1 [compound 503],–,–,"inhibition at 1000 µM [3, 7]: 53 ± 2%"
O=C(CCCOc1ccc(Cl)cc1Cl)NO [compound 508],–,–,"inhibition at 1000 µM [3, 7]: 67 ± 20%"
O=C(COc1ccc(Cl)cc1Cl)NO [compound 509],62 ± 0.3,–,–
O=C(NO)C1CCN(c2ncc(C(F)(F)F)cc2Cl)CC1 [compound 513],–,–,"inhibition at 1000 µM [3, 7]: 54 ± 4%"
O=C(CCc1nc(-c2ccc(Cl)cc2)no1)NO [compound 514],–,–,"inhibition at 1000 µM [3, 7]: 54 ± 9%"
